# Experimental data as given in US8198333B2, “Cytostatic drug composition” (Geopharma Produktions GmbH, priority 2004, dated 2012).
# Columns and labels:
# [1] = test system: Capan-1; experiment: Cytostatic activity, EZ4U test, pancreas carcinoma cell line Capan-1; type: cell-based; conditions: three days
# Protocol: (§1) Cell lines of a colon carcinoma and a pancreas carcinoma, such as Capan-1, DLD-1, HT 29, HCT-8, MLA-PA-CA2, PANCI, BXPC-3, ASPC-1, and HT-29, were examined. The tested cancer cell lines were stored in liquid nitrogen. After defrosting, the cancer cells were cultivated in culture flasks with RPMI-1640+glutamine medium (Gibco® No. 5240025) at 37° C./5% CO2 atmosphere for up to 14 days so that a monolayer of cells was able to form. Thereupon, the cells were harvested with trypsin+EDTA (Gibco® No. 15400-054) and washed twice with an RPMI-medium.
# (§2) Apart from poly-[2-(2-ethoxyethoxyethyl)guanidinium hydrochloride], the chemotherapeutic agents cisplatin, epirubicin, mitomycin C and 5-fluorouracil were tested by way of comparison. Therefor, the compounds were at first dissolved according to the respective instructions of the manufacturer and were then stored as a stock solution in aliquots of 1 ml each (concentration of drug substance: 1000 μg/ml) in liquid nitrogen at −180° C. The dissolved substances were used on the very same day.
# (§3) In order to determine the cytotoxic activity of the substances, the cancer cells were transferred from the culture flasks with an RPMI-washed suspension at a concentration of 20,000 cells in 200 μl onto microtiter plates. In the presence of varying concentrations of the test substances, the cancer cells were subsequently incubated for three days at a temperature of 37° C. and in an atmosphere of 5% CO2. For the poly-[2-(2-ethoxyethoxyethyl)guanidinium hydrochloride], concentrations of 0.12 to 500 μg/ml (factor 2 dilutions) were used in all test arrangements. After three days of incubation, the evaluation was carried out by means of the nonradioactive cell proliferation and cytotoxicity test EZ4U (Biomedica No. BI-5000 10×96 determinations). After three hours of incubation with EZ4U, the evaluation was carried out photometrically in percent at a wavelength of 49/630 nm in a slidephotometer (extinction of the test sample divided by extinction of the control-sample blank value).
# [2] = test system: Panc-1; experiment: Cytostatic activity, EZ4U test, pancreas carcinoma cell line Panc-1; type: cell-based; conditions: three days
# Protocol: as §1, §2, §3
# [3] = test system: BxPc-3; experiment: Cytostatic activity, EZ4U test, pancreas carcinoma cell line BxPc-3; type: cell-based; conditions: three days
# Protocol: as §1, §2, §3
# [4] = test system: AsPc-1; experiment: Cytostatic activity, EZ4U test, pancreas carcinoma cell line AsPc-1; type: cell-based; conditions: three days
# Protocol: as §1, §2, §3
# [5] = test system: HCT-15; experiment: Cytostatic activity, EZ4U test, colon carcinoma cell line HCT-15; type: cell-based; conditions: three days
# Protocol: as §1, §2, §3
# [6] = test system: HCT-8; experiment: Cytostatic activity, EZ4U test, colon carcinoma cell line HCT-8; type: cell-based; conditions: three days
# Protocol: as §1, §2, §3
# [7] = test system: HAT-29; experiment: Cytostatic activity, EZ4U cell proliferation and cytotoxicity test, colon carcinoma cell line HAT-29; type: cell-based; conditions: three days
# Protocol: as §1, §2, §3
# [8] = test system: cancer cells; experiment: Cytostatic activity in cancer cell lines (colon and pancreas carcinoma), summary; type: cell-based; conditions: colon carcinoma (HT-29, HCT-8, DLD-1) and pancreas carcinoma (ASPC-1, BXPC-3, CAPAN-1, PANC-1) cell lines
# Protocol: as §1
# as §3, with “After three hours of incubation with EZ4U, the evaluation was carried out photometrically in percent at a wavelength of 49/630 nm in a slidephotometer (extinction of the test sample divided by extinction of the control-sample blank value).” left out
# [9] = test system: lymphocytes of healthy test persons; experiment: Vitality of lymphocytes, trypan blue; type: cell-based, human; conditions: for Vitality of lymphocytes in %: 24 hours
# Protocol: In addition, lymphocytes of healthy test persons were examined. In doing so, a total amount of 100 ml blood was drawn into EDTA test tubes. The lymphocytes were isolated from the full blood by means of a Mono-Poly Resolving Medium/Ficol-Hypaque gradient, were washed three times with an HBSS buffer and, prepared in this manner, they were added to the test stock.
# as §2
# The vitality of the lymphocytes was determined in a suspension of 1.2×10^7/ml at varying concentrations of the test substances. In the presence of the test substances, the cell suspensions were incubated for 24 hours at 37° C. and in an atmosphere of 5% CO2 and were then dyed with trypan blue. After dyeing, the lymphocytes were applied onto the counting chamber and their vitality was evaluated in percent.
# [10] = test system: Colon 320DM; experiment: Cytostatic activity, EZ4U test, colon carcinoma cell line Colon 320DM; type: cell-based; conditions: three days
# Protocol: as §1, §2, §3
# [11] = type: in vivo; conditions: intravenous or intraperitoneal, up to 15 mg/kg body weight
# Protocol: After an (intravenous or intraperitoneal) systemic administration of poly-[2-(2-ethoxyethoxyethyl)guanidinium hydrochloride] in amounts of up to 15 mg/kg body weight, serum concentrations of up to 100 μg/ml are measured in the rat's blood after two hours, whereby, at the same time, the tolerance is good. Therefore, poly-[2-(2-ethoxyethoxyethyl)guanidinium hydrochloride] can be used as a cytostatic drug.
# [12] = test system: Colon 205; experiment: Cytostatic activity, EZ4U test, colon carcinoma cell line Colon 205; type: cell-based; conditions: three days
# Protocol: as §1, §2, §3
# [13] = test system: DLD-1; experiment: Cytostatic activity, EZ4U test, colon carcinoma cell line DLD-1; type: cell-based; conditions: three days
# Protocol: as §1, §2, §3
# [14] = test system: MIA PaCa-2; experiment: Cytostatic activity, EZ4U test, pancreas carcinoma cell line MIA PaCa-2; type: cell-based; conditions: three days
# Protocol: as §1, §2, §3
compound,measurement,setting,value
O=c1[nH]cc(F)c(=O)[nH]1 [5-Fluorouracil],vitality in %,[1]; 0.6 μg/ml,46%
same,vitality in %,[1]; 6 μg/ml,38%
same,vitality in %,[1]; 60 μg/ml,23%
same,vitality in %,[2]; 0.6 μg/ml,80%
same,vitality in %,[2]; 6 μg/ml,77%
same,vitality in %,[2]; 60 μg/ml,62%
same,vitality in %,[3]; 0.6 μg/ml,86%
same,vitality in %,[3]; 6 μg/ml,79%
same,vitality in %,[3]; 60 μg/ml,67%
same,vitality in %,[4]; 0.6 μg/ml,92%
same,vitality in %,[4]; 6 μg/ml,88%
same,vitality in %,[4]; 60 μg/ml,71%
N.N.[Cl][Pt][Cl] [Cisplatin],vitality in %,[1]; 0.025 μg/ml,94%
same,vitality in %,[1]; 0.25 μg/ml,54%
same,vitality in %,[1]; 2.5 μg/ml,36%
same,vitality in %,[3]; 0.025 μg/ml,87%
same,vitality in %,[3]; 0.25 μg/ml,65%
same,vitality in %,[3]; 2.5 μg/ml,93%
same,vitality in %,[4]; 0.025 μg/ml,85%
same,vitality in %,[4]; 0.25 μg/ml,89%
same,vitality in %,[4]; 2.5 μg/ml,53%
COc1cccc2c1C(=O)c1c(O)c3c(c(O)c1C2=O)C[C@@](O)(C(=O)CO)C[C@@H]3O[C@H]1C[C@H](N)[C@@H](O)[C@H](C)O1 [Epirubicin],vitality in %,[1]; 0.12 μg/ml,50%
same,vitality in %,[1]; 1.19 μg/ml,35%
same,vitality in %,[1]; 11.9 μg/ml,54%
same,vitality in %,[2]; 0.12 μg/ml,111%
same,vitality in %,[2]; 1.19 μg/ml,43%
same,vitality in %,[2]; 11.9 μg/ml,61%
same,vitality in %,[3]; 0.12 μg/ml,76%
same,vitality in %,[3]; 1.19 μg/ml,55%
same,vitality in %,[3]; 11.9 μg/ml,62%
same,vitality in %,[4]; 0.12 μg/ml,105%
same,vitality in %,[4]; 1.19 μg/ml,59%
same,vitality in %,[4]; 11.9 μg/ml,55%
CO[C@@]12[C@H](COC(N)=O)C3=C(C(=O)C(C)=C(N)C3=O)N1C[C@@H]1N[C@@H]12 [Mitomycin C],vitality in %,[1]; 0.015 μg/ml,59%
same,vitality in %,[1]; 0.15 μg/ml,30%
same,vitality in %,[1]; 1.5 μg/ml,22%
same,vitality in %,[2]; 0.015 μg/ml,104%
same,vitality in %,[2]; 0.15 μg/ml,103%
same,vitality in %,[2]; 1.5 μg/ml,55%
same,vitality in %,[3]; 0.015 μg/ml,100%
same,vitality in %,[3]; 0.15 μg/ml,91%
same,vitality in %,[3]; 1.5 μg/ml,47%
same,vitality in %,[4]; 0.015 μg/ml,98%
same,vitality in %,[4]; 0.15 μg/ml,89%
same,vitality in %,[4]; 1.5 μg/ml,65%
poly-[2-(2-ethoxyethoxyethyl)guanidinium hydrochloride],vitality in %,[1]; 2 μg/ml,115%
same,vitality in %,[1]; 4 μg/ml,111%
same,vitality in %,[1]; 8 μg/ml,95%
same,vitality in %,[1]; 16 μg/ml,114%
same,vitality in %,[1]; 32 μg/ml,79%
same,vitality in %,[1]; 64 μg/ml,46%
same,vitality in %,[5]; 2 μg/ml,81%
same,vitality in %,[5]; 4 μg/ml,81%
same,vitality in %,[5]; 8 μg/ml,69%
same,vitality in %,[5]; 16 μg/ml,25%
same,vitality in %,[5]; 32 μg/ml,18%
same,vitality in %,[5]; 64 μg/ml,16%
same,vitality in %,[6]; 0.125 μg/ml,88%
same,vitality in %,[6]; 0.25 μg/ml,70%
same,vitality in %,[6]; 0.5 μg/ml,79%
same,vitality in %,[6]; 1 μg/ml,85%
same,vitality in %,[6]; 2 μg/ml,90%
same,vitality in %,[6]; 4 μg/ml,114%
same,vitality in %,[6]; 8 μg/ml,91%
same,vitality in %,[6]; 16 μg/ml,34%
same,vitality in %,[6]; 32 μg/ml,15%
same,vitality in %,[6]; 64 μg/ml,11%
same,vitality in %,[7]; 0.125 μg/ml,76%
same,vitality in %,[7]; 0.25 μg/ml,85%
same,vitality in %,[7]; 0.5 μg/ml,98%
same,vitality in %,[7]; 1 μg/ml,88%
same,vitality in %,[7]; 2 μg/ml,77%
same,vitality in %,[7]; 4 μg/ml,76%
same,vitality in %,[7]; 8 μg/ml,47%
same,vitality in %,[7]; 16 μg/ml,21%
same,vitality in %,[7]; 32 μg/ml,13%
same,vitality in %,[7]; 64 μg/ml,11%
same,cytostatic activity,[8],excellent cytostatic activity
same,vitality in %,[2]; 2 μg/ml,88%
same,vitality in %,[2]; 4 μg/ml,90%
same,vitality in %,[2]; 8 μg/ml,55%
same,vitality in %,[2]; 16 μg/ml,30%
same,vitality in %,[2]; 32 μg/ml,16%
same,vitality in %,[2]; 64 μg/ml,11%
same,Vitality of lymphocytes in %,[9]; 12.5 μg/ml,98%
same,Vitality of lymphocytes in %,[9]; 25 μg/ml,100%
same,Vitality of lymphocytes in %,[9]; 50 μg/ml,96%
same,Vitality of lymphocytes in %,[9]; 100 μg/ml,98%
same,Vitality of lymphocytes in %,[9]; 250 μg/ml,30%
same,Vitality of lymphocytes in %,[9]; 500 μg/ml,16%
same,Vitality of lymphocytes in %,[9]; 1000 μg/ml,1%
same,concentrations from which cytostatic activity has been observed,[9]; healthy endogenous cells such as lymphocytes (table 4),≥ 100 µg/mL
same,vitality in %,[10]; 2 μg/ml,79%
same,vitality in %,[10]; 4 μg/ml,37%
same,vitality in %,[10]; 8 μg/ml,26%
same,vitality in %,[10]; 16 μg/ml,24%
same,vitality in %,[10]; 32 μg/ml,22%
same,vitality in %,[10]; 64 μg/ml,21%
same,vitality in %,[3]; 2 μg/ml,63%
same,vitality in %,[3]; 4 μg/ml,74%
same,vitality in %,[3]; 8 μg/ml,44%
same,vitality in %,[3]; 16 μg/ml,18%
same,vitality in %,[3]; 32 μg/ml,11%
same,vitality in %,[3]; 64 μg/ml,9%
same,vitality in %,[4]; 2 μg/ml,92%
same,vitality in %,[4]; 4 μg/ml,70%
same,vitality in %,[4]; 8 μg/ml,50%
same,vitality in %,[4]; 16 μg/ml,15%
same,vitality in %,[4]; 32 μg/ml,12%
same,vitality in %,[4]; 64 μg/ml,13%
same,serum concentrations in the rat's blood,[11]; after two hours,up to 100 μg/ml
same,tolerance,[11]; rat,good
same,vitality in %,[12]; 2 μg/ml,70%
same,vitality in %,[12]; 4 μg/ml,59%
same,vitality in %,[12]; 8 μg/ml,27%
same,vitality in %,[12]; 16 μg/ml,16%
same,vitality in %,[12]; 32 μg/ml,16%
same,vitality in %,[12]; 64 μg/ml,15%
same,vitality in %,[13]; 2 μg/ml,103%
same,vitality in %,[13]; 4 μg/ml,86%
same,vitality in %,[13]; 8 μg/ml,49%
same,vitality in %,[13]; 16 μg/ml,26%
same,vitality in %,[13]; 32 μg/ml,17%
same,vitality in %,[13]; 64 μg/ml,15%
same,vitality in %,[14]; 2 μg/ml,106%
same,vitality in %,[14]; 4 μg/ml,97%
same,vitality in %,[14]; 8 μg/ml,58%
same,vitality in %,[14]; 16 μg/ml,16%
same,vitality in %,[14]; 32 μg/ml,12%
same,vitality in %,[14]; 64 μg/ml,11%
